From patent publication US20230026277A1, “COMPOSITION FOR PREVENTION, ALLEVIATION, OR TREATMENT OF RESPIRATORY DISEASE” (MICROX CO., LTD., priority 2019, published 2023) come the findings set out here.

Molecules are shown by their SMILES.

The experiment relates to CK2α protein. Description: Western blot of CK2α protein in lung of asthma-induced mice. In kind it is in vivo. The method, then:
Also, on days 21 and 28 from the experimental starting date, the mice were put into a plastic box (Plexiglas (Rohm & Haas, Philadelphia, Pa.) exposure chamber; 24.5 cm×40.5 cm×15.0 cm), and 1.5% ovalbumin was evaporated using an ultrasonic nebulizer (NE-U12; output 0.8 mL/min; Omron, Japan), and injected into the box for 30 minutes so that the mice inhaled the evaporated ovalbumin (secondary challenge).
A tissue was extracted from each of the mice manufactured in Experimental Method 1, and finely ground to a cell level. Thereafter, the cells were lysed in a cell lysis buffer containing a protease inhibitor to obtain a cell lysate. The cell lysate was centrifuged to obtain protein. Then, an equivalent amount of the proteins obtained from the cells were loaded on an SDS-PAGE gel and electrophoresed. The proteins present in the electrophoresed gel were transferred to a PVDF membrane. The PVDF membrane was washed, and added to a blocking buffer in which 5% skim milk was included in a TBS-T buffer, and incubated at room temperature. Then, the PVDF membrane was incubated at room temperature with an antibody diluted 1:1,000 in a TBS-T buffer containing 3% BSA. […] The PVDF membrane was washed three times with a TBS-T buffer, and visualized and quantified using an ECL Western blotting detection reagent. […]
Specifically, the secondary challenge (ovalbumin injection) was performed according to the method described above in Experimental Method 1, and the lungs were extracted after an hour, and then measured according to the method described above in Experimental Method 7. […] Also, the level of TNF-α corresponding to an NK-κB-dependent cytokine was measured by ELISA according to the method described above in Experimental Method 4. […]
The secondary challenge (ovalbumin injection) was performed according to the method described above in Experimental Method 1, and the lungs were extracted after 1 or 2 hours, and then measured according to the method described above in Experimental Method 7. […]
On the technique in general: Immunoblotting shows a protein as a band on a membrane.

Regarding `CC(=O)NC(=O)CC[C@H](NC(C)=O)C(=O)O` [Preparation Example 3, 2,5-diacetamido-5-oxopentanoic acid], the “effect for reducing the level of CK2α” value (400 μg/kg/day with siRNA specific to MKP-1, FIG. 9) is listed as “not observed”. Besides, where the note is “oral daily 400 μg/kg/day, lungs extracted an hour after secondary challenge, FIG. 9A”, the “level of the CK2α protein” value is “decreased”.
